This series in a line: solvent given as SMILES.

For `CCCCCCC(CCCCCC)n1c(=O)c2c3ccc4cccc5c6cccc7ccc(c2c1=O)c(c76)c3c45`, the absorption maximum is, setting by setting: (in C1CCCCC1) 335 nm; (in CC#N) 336 nm; (in CC(C)=O) 336 nm; (in CCCCCC) 334 nm; (in CCO) 336 nm; (in CCOCC) 335 nm. Further, the absorption maximum by setting is: (in CS(C)=O) 339 nm; (in Cc1ccccc1) 339 nm; (in ClC(Cl)(Cl)Cl) 338 nm; (in ClC(Cl)Cl) 339 nm.
Turning to `CCOC(=O)/C=C/C1=C(c2ccc(C)cc2)C2=Nc3c(-c4ccc(C)cc4)c(-c4ccc(OC)cc4)c(-c4ccc(C)cc4)n3[B-](F)(F)[N+]2=C1c1ccc(C)cc1`, the absorption maximum (in ClC(Cl)Cl) is recorded as 673 nm.
Compound `c1ccc(N(c2ccccc2)c2ccc(-c3ccc4c(c3)C3(c5cc(-c6ccc(N(c7ccccc7)c7ccccc7)cc6)ccc5-4)c4ccccc4N(c4ccccc4)c4ccccc43)cc2)cc1` gave an absorption maximum (in ClCCl) of 372 nm.
Under “in CS(C)=O”, `Fc1ccc2sc3nc(-c4ccccc4)sc3c2c1` gave an absorption maximum of 345 nm.
Consider `Cn1c2ccccc2c(=O)c2ccccc21`, for which the absorption maximum runs as follows: (in CS(C)=O) 403 nm; (in O) 394 nm.
On to `c1ccc2c(c1)-c1ccccc1C21c2ccccc2-c2ncccc21`, for which, under “in CC1CCCO1”, the absorption maximum turned out to be 314 nm.
Turning to `CC1=[N+]2C(=C(c3ccc(N(c4ccccc4)c4ccccc4)cc3)c3ccc(C)n3[B-]2(F)F)C=C1c1cc2n(c1)[B-](F)(F)[N+]1=CC=CC1=C2c1c(C)cc(C)cc1C`, the absorption maximum turned out to be 593 nm (in C1CCCCC1) and 596 nm (in CCOC(C)=O).
In turn, `C[C@]12SC(=O)C=C1c1nc(-c3ccc(Cl)cc3Cl)[nH]c1C1=CC(=O)S[C@@]12C` returned an absorption maximum (in CC#N) of 475 nm.
Turning to `Cc1ccccc1C1=C2C=c3c(oc4c3ccc3ccccc34)=[N+]2[B-](F)(F)n2c1cc1c3ccc4ccccc4c3oc12`, the absorption maximum runs as follows: (in C1CCCCC1) 613 nm; (in CCOC(C)=O) 607 nm; (in CO) 605.5 nm.
On to `CCOC(=O)C1=C(C)NC2=C(C(=O)c3ccccc32)C1c1ccc(N(C)C)cc1` (stereo not given), for which the absorption maximum runs as follows: (in C1CCOC1) 374 nm; (in C1COCCO1) 373 nm; (in CC#N) 379 nm; (in CCO) 395 nm; (in CN(C)C=O) 385 nm; (in CO) 389 nm. Besides, the absorption maximum (in CS(C)=O) was 400 nm, the absorption maximum (in ClC(Cl)(Cl)Cl) is given as 371 nm, the absorption maximum (in ClC(Cl)Cl) was determined as 383 nm and the absorption maximum (in ClCCl) is 387 nm.
With `C[Si](C)(C)C#C[Si](c1c2ccccc2cc2ccccc12)(c1c2ccccc2cc2ccccc12)c1c2ccccc2cc2ccccc12`, the absorption maximum (in ClC(Cl)Cl) was 404 nm.
In turn, `OC1(c2ccc(-c3cccs3)s2)CCCC1` yielded an absorption maximum (in C1CCOC1) of 344 nm; an absorption maximum (in CC#N) of 343 nm; an absorption maximum (in CCCCCC) of 341 nm; an absorption maximum (in CCO) of 342 nm; an absorption maximum (in OCCOCCO) of 347 nm; an absorption maximum (in c1ccncc1) of 348 nm.
For `F[B-]1(F)n2c(ccc2N2CCOCC2)C(c2ccccc2)=C2C=CC(N3CCOCC3)=[N+]21`, the absorption maximum runs as follows: (in CC#N) 566 nm; (in CCCCCC) 573 nm; (in CCOC(C)=O) 570 nm; (in CO) 561 nm; (in ClCCl) 572 nm.
`COCCOc1ccc(OCCOC)c(C=O)c1`: the absorption maximum reads like this: (in CC(C)(C)O) 350 nm; (in CC(C)CO) 350 nm; (in CC(C)O) 349 nm; (in CCCCO) 349 nm; (in CCCO) 349 nm; (in CCO) 349 nm. This compound also yielded an absorption maximum (in CN(C)C=O) of 350 nm; an absorption maximum (in CNC=O) of 350 nm; an absorption maximum (in CO) of 348 nm; an absorption maximum (in NC=O) of 353 nm; an absorption maximum (in O) of 349 nm.
On to `COc1ccc(N(c2ccc(OC)cc2)c2ccc3c(c2)C2(c4cc(N(c5ccc(OC)cc5)c5ccc(OC)cc5)ccc4C=C3)c3ccccc3-c3ccccc32)cc1`, for which the absorption maximum (in ClCCl) turned out to be 414 nm.
`CCCCC(CC)Cn1c2cc(C#N)ccc2c2ccc(C#Cc3ccc4ccc5c(C#Cc6ccc7c8ccc(C#N)cc8n(CC(CC)CCCC)c7c6)cc(C#Cc6ccc7c8ccc(C#N)cc8n(CC(CC)CCCC)c7c6)c6ccc3c4c56)cc21` (stereo not given) returned an absorption maximum (in ClCCl) of 447 nm.
As for `CCOC(=O)c1sc2nc3c(c(C#N)c2c1N)CCCC3`, the absorption maximum (in c1ccccc1) is 420 nm.
As for `Cc1ccc(C)n1-c1cccc(C#N)c1`, the absorption maximum (in ClCCl) was 259 nm.
For `COc1ccc(OC)c(C=O)c1`, the absorption maximum was determined as 349 nm (in C1CCOC1); 348 nm (in C1COCCO1); 349 nm (in CC#N); 349 nm (in CC(C)=O); 352 nm (in CCCO); 352 nm (in CCO). Further, the absorption maximum came to 351 nm (in CN(C)C=O); 352 nm (in CN(C)P(=O)(N(C)C)N(C)C); 352 nm (in CNC=O); 352 nm (in CO); 353 nm (in CS(C)=O); 352 nm (in ClC(Cl)Cl). Further, under “in NC=O”, the absorption maximum stood at 356 nm.
As for `CN1/C(=C/C2=C([O-])C(=O)C2=C2C(=O)NC(=O)NC2=O)C(C)(C)c2ccccc21`, for the setting “in CCO”, the absorption maximum stood at 457 nm.
With `Oc1ccccc1-c1nc(-c2ccccc2)c2ccccn12`, the absorption maximum (in C1CCCCC1) amounted to 340 nm; the absorption maximum (in CC#N) stood at 343 nm; the absorption maximum (in CO) turned out to be 299 nm; the absorption maximum (in ClCCl) turned out to be 345 nm; the absorption maximum (in O) is on record as 299 nm.
Under “in ClC(Cl)Cl”, `COc1ccc(-c2nc3ccccc3nc2-c2ccc(OC)cc2)cc1` registered an absorption maximum of 368 nm.
`COc1cc(C=C(C#Cc2ccccc2)C#Cc2ccccc2)c(OC)cc1C=C(C#Cc1ccccc1)C#Cc1ccccc1` displayed an absorption maximum (in ClC(Cl)Cl) of 455 nm.
With `CCC1=C(C)C(=O)n2c1cc1[nH]c(C(=O)OC(C)(C)C)c(C)c1c2=O`, the absorption maximum is, setting by setting: (in C1CCCCC1) 392 nm; (in CO) 397 nm; (in CS(C)=O) 397 nm; (in ClC(Cl)Cl) 397 nm; (in c1ccccc1) 396 nm.
Turning to `CN1C(=CC2=C([O-])C(=CC3=[N+](C)c4ccccc4C3(C)C)C2=C(C#N)C#N)C(C)(C)c2ccccc21`, the absorption maximum (in ClC(Cl)Cl) was 684 nm.
`OCc1cc2c(cc3ccc4cccc5ccc2c3c45)[nH]1`: for the setting “in CCOC(C)=O”, the absorption maximum amounted to 388 nm.
`Cc1cc(C)c(B(c2c(C)cc(C)cc2C)c2cc3ccc4ccccc4c3c3c2ccc2ccccc23)c(C)c1`: the absorption maximum is listed as 413 nm (in C1CCCCC1); 413 nm (in C1CCOC1); 410 nm (in CC#N); 413 nm (in ClC(Cl)Cl); 415 nm (in c1ccccc1).
As for `N#Cc1c(-c2ccc(N(c3ccccc3)c3ccccc3)cc2)c(C#N)c(-c2ccc(N(c3ccccc3)c3ccccc3)cc2)c(C#N)c1-c1ccc(N(c2ccccc2)c2ccccc2)cc1`, the absorption maximum (in O=P(c1ccccc1)(c1ccccc1)c1ccccc1Oc1ccccc1P(=O)(c1ccccc1)c1ccccc1) was determined as 420 nm.
Where the note is “in ClC(Cl)Cl”, `CCCCn1c2ccccc2c2ccc3c4cc(-c5ccccc5)ccc4n(CCCC)c3c21` gave an absorption maximum of 330 nm.
Consider `CCN(CC)c1ccc2cc(-c3nc4c5cccc6ccc7cccc(c7c65)c4n3-c3ccc(C(C)(C)C)cc3)c(=O)oc2c1`, for which the absorption maximum (in ClCCl) stood at 410 nm.
As for `Cc1ccc(C2=C3C=C(I)C=[N+]3[B-](F)(F)n3c2cc(I)c3I)cc1`, the absorption maximum (in C1CCCCC1) turned out to be 563.5 nm; the absorption maximum (in CC#N) is recorded as 553 nm; the absorption maximum (in CCO) came out at 559 nm; the absorption maximum (in CCOC(C)=O) is given as 556.5 nm; the absorption maximum (in CO) came to 557.5 nm; the absorption maximum (in OCC(F)(F)F) was determined as 553 nm.
`CCN(CC)c1ccc2cc(-c3nc4cc(C(=O)Nc5ccccc5)ccc4o3)c(=O)oc2c1`: the absorption maximum (in ClCCl) is given as 442 nm.
As to `CC(C)(C)c1ccc2c(c1)c1cc(C(C)(C)C)ccc1n2-c1ccc(C#Cc2ccc(C#Cc3ccc(C=C(C#N)C#N)cc3)cc2)cc1`, the absorption maximum (in ClCCl) was 382 nm.
Where the note is “in ClCCl”, `O=C1c2ccccc2C2=Nc3cccc4cccc(c34)N12` gave an absorption maximum of 448 nm.
Same read-out and setting: as for `COc1ccc(-c2c3cc4ccccc4cc3c(C#Cc3ccccc3)c3cc4ccccc4cc23)cc1`, the figure is 635 nm; as for `c1ccc(N(c2ccccc2)c2ccc(-c3ncnc4ccccc34)cc2)cc1`, 380 nm.
Take `CC1=NN(c2ccccc2)C(=O)/C1=C/c1cn(-c2ccccc2)nc1-c1ccccc1`: the absorption maximum (in C1CCOC1) was 365 nm; the absorption maximum (in C1COCCO1) was determined as 366 nm; the absorption maximum (in CCO) is on record as 367 nm; the absorption maximum (in CCOC(C)=O) is 364 nm; the absorption maximum (in CN(C)C=O) came out at 367 nm; the absorption maximum (in CO) turned out to be 364 nm. In addition, the absorption maximum is 370 nm (in CS(C)=O), 369 nm (in Cc1ccccc1), 368 nm (in ClC(Cl)Cl) and 368 nm (in ClCCl).
With `O=C([O-])c1cc(N2C(=O)C=CC2=O)ccc1-c1c2cc(F)c(=O)cc-2oc2cc([O-])c(F)cc12`, the absorption maximum (in O) is recorded as 493 nm.
The compound `COc1ccc(-n2c3c4ccccc4nc(-c4ccc(C#N)cc4)c3c3c2c2c(-c4ccc(C#N)cc4)nc4ccccc4c2n3-c2ccc(OC)cc2)cc1` came in with an absorption maximum (in ClC(Cl)Cl) of 315 nm.
Same read-out and setting: with `F[B-]1(F)OC(c2ccccc2)=Cc2c3ccccc3c3ccccc3[n+]21` the figure was 432 nm; with `COc1ccc(-c2oc3cccc4c5c(-c6ccc(OC)c(OC)c6)/c(=N/S(=O)(=O)C(F)(F)F)oc6cccc(c2c34)c65)cc1OC`, 485 nm.

These data come from the Deep4Chem optical property database.
